# Experimental data taken from patent US20180343865A1, “HERBICIDAL COMPOSITIONS COMPRISING ISOXAZOLO[5,4-B]PYRIDINES” (BASF SE, priority 2015, published 2018).
# Several values for one entry are separate records, joined by “and”; a condition that tells them apart may be missing. Equal entries are not always repeated. Where two headings read alike, the source gives them in different places.
# Assays:
# Assay type in all cases: in vivo
# Conyza canadiensis = test: Greenhouse postemergence herbicidal activity on ERICA, 20 DAT; details: Conyza, post-emergence, ERICA, postemergence; for inhibition at 31.25 g/ha: 31.25 gai/ha
# Experimental: (§1) For the post emergence treatment, the plants were first grown to the 2 leaf station (GS 12) and applied at GS 12-19 depending on the species. The herbicidal compositions were suspended or emulsified in water as distribution medium and sprayed using finely distributing nozzles.
# (§2) The plants have been cultivated due to their individual requirements at 10 to 25° C. and. 20 to 35° C. The plants were irrigated due to their necessity.
# (§3) The respective stated components A), were formulated as a 5% by weight strength emulsion concentrate containing wettol EM 31 20% and Cyclohexanone 80%. The respective stated components B), were formulated as either emulsifiable concentrates (EC), soluble liquids (SL), suspension concentrates (SC) or soluble granules (SG) as indicated in the table below. Component A, component B and the solvent system are introduced into the spray liquor used for applying the active compound. In the examples, the solvent used was water containing 1% Dash (Agnique ME 181 37.5%, Lutensit A-EP 22.5%, and Oleic Acid 5%) and 2% ammonium suflate.
# (§4) In the following experiments, the herbicidal activity for the individual herbicide compounds (solo and mixture applications), the herbicidal succession was assessed 20 days after treatment (DAT). The evaluation for the damage on undesired weeds caused by the chemical compositions was carried out using a scale from 0 to 100%, compared to the untreated control plants. Here, 0 means no damage and 100 means complete destruction of the plants. The plants used in the greenhouse experiments belonged to the following species:
# (§5) The value E, which corresponds to the effect (in %) that is to be expected if the activity of the individual compounds is additive, was calculated using the method of S. R. Colby (1967) “Calculating synergistic and antagonistic responses of herbicide combinations”, Weeds 15, p. 22 ff. Colby calculation for 2 way mixtures:
# (§6) where: • X=effect in percent using herbicide A at an application rate a; • Y=effect in percent using herbicide B at an application rate b; • E=expected effect (in %) of A+B at application rates a+b
# (§7) If the value observed in this manner is higher than the value E calculated according to Colby, a synergistic effect is present.
# BROST = test: Greenhouse postemergence herbicidal activity on BROST, 20 DAT; details: post-emergence, 31.25 gai/ha, Table 8, read-out: % activity, solo application (I.A)
# Amaranthus retroflexus = test: Greenhouse postemergence herbicidal activity on AMARE, 20 DAT; details: AMARE, postemergence; for inhibition at 62.5 g/ha: 62.5 gai/ha
# Experimental: as §1, §2, §3, §4, §5, §6, §7
# Abutilon theoprasti = test: Greenhouse postemergence herbicidal activity on ABUTH, 20 DAT
# Experimental: as §1, §2, §3, §4, §5, §6, §7
# Stellaria media = test: Greenhouse postemergence herbicidal activity on STEME, 20 DAT; details: STEME, postemergence
# Experimental: as §1, §2, §3, §4, §5, §6, §7
# Ipomoea hederacea = test: Greenhouse postemergence herbicidal activity on IPOHE, 20 DAT; details: for inhibition at 125 g/ha: 125 gai/ha
# Experimental: as §1, §2, §3, §4, §5, §6, §7
# Kochia scoparia = test: Greenhouse postemergence herbicidal activity on KCHSC, 20 DAT; details: for inhibition at 31.25 g/ha: 31.25 gai/ha; for inhibition at 62.5 g/ha: 62.5 gai/ha
# Experimental: as §1, §2, §3, §4, §5, §6, §7
# DIGSA = test: Greenhouse postemergence herbicidal activity on DIGSA, 20 DAT; details: Digitaria sanguinalis, post-emergence, Table 8, read-out: % activity, solo application (I.A)
# Polygonum convolvulus = test: Greenhouse postemergence herbicidal activity on POLCO, 20 DAT; details: Fallopia convolvulus, post-emergence, POLCO, postemergence; for inhibition at 62.5 g/ha: 62.5 gai/ha
# Experimental: as §1, §2, §3, §4, §5, §6, §7
# ALOMY = test: Greenhouse postemergence herbicidal activity on ALOMY, 20 DAT; details: Alopecurus myosuroides, post-emergence, Table 8, read-out: % activity, solo application (I.A)
# Polygonum persicaria = test: Greenhouse postemergence herbicidal activity on POLPE, 20 DAT; details: Persicaria maculosa, post-emergence, 480 h, POLPE, postemergence, 20 DAT, read-out: % activity, solo (I.A)
# Experimental: as §1, §2, §3, §4, §5, §6, §7
# Amaranthus palmeri = test: Greenhouse postemergence herbicidal activity on AMAPA, 20 DAT
# Experimental: as §1, §2, §3, §4, §5, §6, §7
# APESV = test: Greenhouse postemergence herbicidal activity on APESV, 20 DAT; details: post-emergence, Table 8, read-out: % activity, solo application (I.A)
# [1] = 480 h, 15.6 gai/ha, 20 DAT, read-out: % activity, solo (I.A)
# [2] = Table 8, read-out: % activity, solo application (I.A)
# [3] = Bassia scoparia, post-emergence, Table 6, read-out: % activity, solo application (I.A)
# [4] = Bassia scoparia, post-emergence, 480 h, 20 DAT, read-out: % activity, solo (I.A)
structure (smiles),measurement,setting,value
CC(C)c1noc2nc(C3CC3)cc(C(=O)O)c12 [(I.A)],inhibition at 15.6 g/ha,Conyza canadiensis; [1],40%
same,inhibition at 31.25 g/ha,"Conyza canadiensis; 480 h, 20 DAT, read-out: % activity, solo (I.A)",40%
same,inhibition at 62.5 g/ha,"Conyza canadiensis; 480 h, 62.5 gai/ha, 20 DAT, read-out: % activity, solo (I.A)",90%
same,inhibition at 31.25 g/ha,Conyza canadiensis; [2],35%
same,inhibition at 31.25 g/ha,BROST,0%
same,"% activity, solo (I.A)","Amaranthus retroflexus; 31.25 gai/ha, 20 DAT",58% and 78% and 80%
same,inhibition at 62.5 g/ha,"Amaranthus retroflexus; Amaranthus retroflexus, post-emergence, 480 h, 20 DAT, read-out: % activity, solo (I.A)",94%
same,inhibition at 125 g/ha,"Amaranthus retroflexus; Amaranthus retroflexus, post-emergence, 480 h, 125 gai/ha, 20 DAT, read-out: % activity, solo (I.A)",93%
same,inhibition at 7.8 g/ha,"Amaranthus retroflexus; Amaranthus retroflexus, post-emergence, 7.8 gai/ha, Table 8, read-out: % activity, solo application (I.A)",0%
same,inhibition at 15.6 g/ha,"Amaranthus retroflexus; Amaranthus retroflexus, post-emergence, 15.6 gai/ha, Table 8, read-out: % activity, solo application (I.A)",15%
same,inhibition at 31.25 g/ha,"Amaranthus retroflexus; Amaranthus retroflexus, post-emergence, 31.25 gai/ha, Table 6, read-out: % activity, solo application (I.A)",65%
same,inhibition at 62.5 g/ha,"Amaranthus retroflexus; Amaranthus retroflexus, post-emergence, Table 8, read-out: % activity, solo application (I.A)",85%
same,"% activity, solo (I.A)","Abutilon theoprasti; 62.5 gai/ha, 20 DAT",98%
same,inhibition at 7.8 g/ha,"Abutilon theoprasti; Abutilon, post-emergence, 7.8 gai/ha, Table 8, read-out: % activity, solo application (I.A)",0%
same,inhibition at 15.6 g/ha,"Abutilon theoprasti; Abutilon, post-emergence, 15.6 gai/ha, Table 8, read-out: % activity, solo application (I.A)",0%
same,inhibition at 31.25 g/ha,"Abutilon theoprasti; Abutilon, post-emergence, 31.25 gai/ha, Table 8, read-out: % activity, solo application (I.A)",20%
same,inhibition at 62.5 g/ha,"Abutilon theoprasti; Abutilon, post-emergence, 62.5 gai/ha, Table 6, read-out: % activity, solo application (I.A)",70%
same,inhibition at 62.5 g/ha,"Abutilon theoprasti; Abutilon, post-emergence, 62.5 gai/ha, Table 8, read-out: % activity, solo application (I.A)",30%
same,inhibition at 125 g/ha,"Abutilon theoprasti; Abutilon, post-emergence, 480 h, 125 gai/ha, 20 DAT, read-out: % activity, solo (I.A)",73%
same,inhibition at 250 g/ha,"Abutilon theoprasti; Abutilon, post-emergence, 480 h, 250 gai/ha, 20 DAT, read-out: % activity, solo (I.A)",92%
same,"% activity, solo (I.A)","Stellaria media; 31.25 gai/ha, 20 DAT",35%
same,"% activity, solo (I.A)","Stellaria media; 62.5 gai/ha, 20 DAT",70% and 95%
same,inhibition at 31.25 g/ha,"Stellaria media; Stellaria media, post-emergence, 480 h, 31.25 gai/ha, 20 DAT, read-out: % activity, solo (I.A)",20%
same,inhibition at 15.6 g/ha,"Stellaria media; Stellaria media, post-emergence, 15.6 gai/ha, Table 8, read-out: % activity, solo application (I.A)",0%
same,inhibition at 31.25 g/ha,"Stellaria media; Stellaria media, post-emergence, 31.25 gai/ha, Table 8, read-out: % activity, solo application (I.A)",0%
same,inhibition at 62.5 g/ha,"Stellaria media; Stellaria media, post-emergence, 62.5 gai/ha, Table 8, read-out: % activity, solo application (I.A)",0%
same,"% activity, solo (I.A)","Ipomoea hederacea; 31.25 gai/ha, 20 DAT",95%
same,"% activity, solo (I.A)","Ipomoea hederacea; 62.5 gai/ha, 20 DAT",95%
same,inhibition at 31.25 g/ha,"Ipomoea hederacea; Ipomoea hederacea, post-emergence, 31.25 gai/ha, Table 6, read-out: % activity, solo application (I.A)",75%
same,inhibition at 31.25 g/ha,"Ipomoea hederacea; Ipomoea hederacea, post-emergence, 31.25 gai/ha, Table 8, read-out: % activity, solo application (I.A)",50%
same,inhibition at 62.5 g/ha,"Ipomoea hederacea; Ipomoea hederacea, post-emergence, 62.5 gai/ha, Table 6, read-out: % activity, solo application (I.A)",87%
same,inhibition at 125 g/ha,"Ipomoea hederacea; Ipomoea hederacea, post-emergence, Table 6, read-out: % activity, solo application (I.A)",98%
same,inhibition at 128 g/ha,"Ipomoea hederacea; Ipomoea hederacea, post-emergence, 128 gai/ha, Table 6, read-out: % activity, solo application (I.A)",98%
same,inhibition at 250 g/ha,"Ipomoea hederacea; Ipomoea hederacea, post-emergence, 250 gai/ha, Table 6, read-out: % activity, solo application (I.A)",99%
same,inhibition at 15.6 g/ha,"Ipomoea hederacea; Ipomoea hederacea, post-emergence, 480 h, 15.6 gai/ha, 20 DAT, read-out: % activity, solo (I.A)",65%
same,inhibition at 31.25 g/ha,"Ipomoea hederacea; Ipomoea hederacea, post-emergence, 480 h, 31.25 gai/ha, 20 DAT, read-out: % activity, solo (I.A)",75%
same,inhibition at 62.5 g/ha,"Ipomoea hederacea; Ipomoea hederacea, post-emergence, 480 h, 62.5 gai/ha, 20 DAT, read-out: % activity, solo (I.A)",87%
same,inhibition at 125 g/ha,"Ipomoea hederacea; Ipomoea hederacea, post-emergence, 480 h, 20 DAT, read-out: % activity, solo (I.A)",98%
same,"% activity, solo (I.A)","Kochia scoparia; 125 gai/ha, 20 DAT",95%
same,inhibition at 31.25 g/ha,Kochia scoparia; [3],30%
same,inhibition at 62.5 g/ha,Kochia scoparia; [3],63%
same,inhibition at 31.25 g/ha,Kochia scoparia; [4],35%
same,inhibition at 62.5 g/ha,Kochia scoparia; [4],68%
same,inhibition at 125 g/ha,"Kochia scoparia; Bassia scoparia, post-emergence, 480 h, 125 gai/ha, 20 DAT, read-out: % activity, solo (I.A)",90%
same,inhibition at 31.25 g/ha,DIGSA; 31.25 gai/ha,0%
same,inhibition at 62.5 g/ha,DIGSA; 62.5 gai/ha,0%
same,inhibition at 15.6 g/ha,Polygonum convolvulus; [1],30%
same,inhibition at 31.25 g/ha,"Polygonum convolvulus; 31.25 gai/ha, Table 6, read-out: % activity, solo application (I.A)",73%
same,inhibition at 62.5 g/ha,"Polygonum convolvulus; Table 6, read-out: % activity, solo application (I.A)",95%
same,inhibition at 62.5 g/ha,Polygonum convolvulus; [2],35%
same,inhibition at 125 g/ha,"Polygonum convolvulus; 125 gai/ha, Table 6, read-out: % activity, solo application (I.A)",99%
same,inhibition at 15.6 g/ha,ALOMY; 15.6 gai/ha,0%
same,inhibition at 31.25 g/ha,ALOMY; 31.25 gai/ha,0%
same,inhibition at 62.5 g/ha,ALOMY; 62.5 gai/ha,20%
same,inhibition at 15.6 g/ha,Polygonum persicaria; 15.6 gai/ha,70%
same,inhibition at 31.25 g/ha,Polygonum persicaria; 31.25 gai/ha,80%
same,"% activity, solo (I.A)",Amaranthus palmeri; 62.5 gai/ha,89%
same,inhibition at 15.6 g/ha,"Amaranthus palmeri; Amaranthus palmeri, post-emergence, 480 h, 15.6 gai/ha, read-out: % activity, solo (I.A)",5%
same,inhibition at 31.25 g/ha,"Amaranthus palmeri; Amaranthus palmeri, post-emergence, 480 h, 31.25 gai/ha, read-out: % activity, solo (I.A)",80%
same,inhibition at 62.5 g/ha,"Amaranthus palmeri; Amaranthus palmeri, post-emergence, 480 h, 62.5 gai/ha, read-out: % activity, solo (I.A)",80%
same,inhibition at 15.6 g/ha,APESV; 15.6 gai/ha,0%
same,inhibition at 31.25 g/ha,APESV; 31.25 gai/ha,0%
same,inhibition at 62.5 g/ha,APESV; 62.5 gai/ha,0%
